Here are results for two compounds from ChEMBL document CHEMBL1141676, “A three-dimensional pharmacophore model for dipeptidyl peptidase IV inhibitors” (Eur J Med Chem, 2008).

This assay concerns the target Dipeptidyl peptidase 4 (Homo sapiens, UniProt P27487).

Sequence of Dipeptidyl peptidase 4 (P27487 whole entry): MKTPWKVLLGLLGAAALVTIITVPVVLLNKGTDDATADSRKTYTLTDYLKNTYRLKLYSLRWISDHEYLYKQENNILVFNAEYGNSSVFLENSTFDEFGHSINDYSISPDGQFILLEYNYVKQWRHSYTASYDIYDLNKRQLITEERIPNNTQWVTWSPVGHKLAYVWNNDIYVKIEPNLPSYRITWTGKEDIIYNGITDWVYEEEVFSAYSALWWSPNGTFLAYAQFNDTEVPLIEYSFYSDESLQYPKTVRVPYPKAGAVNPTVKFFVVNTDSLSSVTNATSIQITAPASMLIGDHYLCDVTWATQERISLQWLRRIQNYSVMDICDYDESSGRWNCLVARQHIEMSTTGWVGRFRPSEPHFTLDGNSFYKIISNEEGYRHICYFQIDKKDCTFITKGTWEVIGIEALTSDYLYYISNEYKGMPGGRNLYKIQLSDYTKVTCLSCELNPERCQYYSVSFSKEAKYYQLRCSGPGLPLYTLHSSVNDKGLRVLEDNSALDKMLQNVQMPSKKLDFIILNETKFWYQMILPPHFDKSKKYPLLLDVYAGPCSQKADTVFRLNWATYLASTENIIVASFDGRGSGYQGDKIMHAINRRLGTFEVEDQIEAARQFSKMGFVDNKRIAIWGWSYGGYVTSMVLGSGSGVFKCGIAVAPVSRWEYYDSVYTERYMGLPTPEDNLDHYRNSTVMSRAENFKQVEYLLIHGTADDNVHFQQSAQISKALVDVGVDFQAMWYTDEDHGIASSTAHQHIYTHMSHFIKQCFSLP
Description: Inhibition of human DPP4 expressed in baculovirus system

Take `N[C@H](C(=O)N1CCc2ccccc2C1)C1CCCCC1`: the half-maximal inhibitory concentration (IC50) is 230 µM. Compound `N#C[C@@H]1CCCN1C(=O)CN1CCc2ccccc2C1` registered a half-maximal inhibitory concentration (IC50) of 390 µM.
